Experimental data reported in patent publication US11833128B2, “Ketone carbonyl-containing hydrophobic antitumor drug and conjugate thereof as well as nano preparation containing conjugate, preparation method therefor, and application thereof” (Jiangsu Jibeier Pharmaceutical Co. Ltd., priority 2018, dated 2023).

How the values were obtained:
Hela tumor = test: Effects of the pH-responsive nano preparations on tumor in vivo (Hela tumor-bearing mice); conditions: tail vein, once every seven days x3; for relative tumor inhibition rate: 30th day from the last administration
Procedure: Hela tumor-bearing mice were divided into four groups with five mice in each group. The first, second, and third groups were the treatment groups, in which tumor treatment was carried out by respectively injecting the drug via the tail vein of each Hela tumor-bearing mouse. […] The fourth group was the blank control group.
The mice in the first, second and third groups were treated by administering drugs once every seven days for a total of three injections. Each tumor-bearing mouse in each group was labeled, and the body weight and the tumor volume thereof throughout the treatment process were recorded. The tumor volume was calculated according to the following formula: V (mm^3)=½×length (mm)×width (mm)^2.
Moreover, the relative tumor inhibition rate was also calculated and analyzed.

[1] = tested on: human lung cancer A549 xenograft; test: Tumor inhibitory effect of DTX-AI in nude mice bearing human lung cancer A549 xenograft; conditions: iv x 4 (qw); for Animal body weight (g) (After tumor removal): Day 43; for Tumor inhibition rate %: Day 43 (21st day from the last administration);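 as to all read-outs here: mice implanted subcutaneously with A549 tumor fragments, grouped 14 days later at mean tumor volume near 210–250 mm^3, grouping set as Day 0, animals sacrificed on Day 43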
Source text: A well-grown A549 lung cancer solid tumor was taken and cut into uniform small masses having a size of about 3 mm under sterile conditions. Each mouse was inoculated subcutaneously under the right armpit with one mass by using a trocar. 14 days after inoculation, the average tumor volume was about 210 to 250 mm^3. The mice were grouped according to the tumor sizes, and the average tumor volume of each group was basically the same. […] The long diameters (a) and the short diameters (b) of the tumors were measured with an electronic digital caliper twice a week. The calculation formula of tumor volume (TV) was: TV=½×a×b^2. The calculation formula of the relative tumor volume (RTV) was: RTV=Vt/V0, wherein V0 was the tumor volume measured at the time of grouping (namely, d0), and Vt was the tumor volume at each measurement. […] On Day 43 (56 days after inoculation), the animals were sacrificed and dissected, the tumors were incised and weighed, and the body weights of the animals after tumor removal were calculated.

Structure (SMILES): CC(=O)OC12COC1CC(O)C1(C)C(=O)C(OC(=O)Nc3ccc(C(C)=O)cc3)C3=C(C)C(OC(=O)C(O)C(NC(=O)OC(C)(C)C)c4ccccc4)CC(O)(C(OC(=O)c4ccccc4)C21)C3(C)C (stereo not shown) [DTX-AI]
- relative tumor volume after 21 days (after the administration was stopped) (FIG. 5) (Hela tumor; 40 mg DTX/kg): still showed a decreasing trend with time
- tumor sizes after the completion of the treatment (photograph, FIG. 7) (Hela tumor; 40 mg DTX/kg): significantly smaller than those of the first group and the blank control group
- relative tumor inhibition rate (Hela tumor; 40 mg DTX/kg): 93.5%
- body weights of the mice over treatment time (FIG. 4) (Hela tumor; 40 mg DTX/kg, compared with blank control group): basically the same as those in the blank control group
- RTV (Day 43) ([1]; 20 mg/kg): 6.62 ± 2.10
- body weights of the animals after administering (FIG. 9), in words ([1]; 20 mg/kg): basically not affected
- Animal body weight (g) (After tumor removal) ([1]; 20 mg/kg): 25.52 ± 0.99 g
- Tumor inhibition rate % ([1]; 20 mg/kg): 62.38%
- tumor rebound after drug withdrawal ([1]; 40 mg/kg, 60 mg/kg and 80 mg/kg groups): no tumor rebound occurred
- RTV (Day 43) ([1]; 40 mg/kg): 0.13 ± 0.03
- body weights of the animals after administering (FIG. 9), in words ([1]; 40 mg/kg): slightly reduced
- Animal body weight (g) (After tumor removal) ([1]; 40 mg/kg): 24.07 ± 1.19 g
- Tumor inhibition rate % ([1]; 40 mg/kg): 99.28%
- RTV (Day 43) ([1]; 60 mg/kg): 0.09 ± 0.02
- body weights of the animals after administering (FIG. 9), in words ([1]; 60 mg/kg): slightly reduced
- Animal body weight (g) (After tumor removal) ([1]; 60 mg/kg): 24.24 ± 1.43 g
- Tumor inhibition rate % ([1]; 60 mg/kg): 99.50%
- RTV (Day 43) ([1]; 80 mg/kg): 0.13 ± 0.05
- body weights of the animals after administering (FIG. 9), in words ([1]; 80 mg/kg): reduced
- Animal body weight (g) (After tumor removal) ([1]; 80 mg/kg): 20.99 ± 2.86 g
- Tumor inhibition rate % ([1]; 80 mg/kg): 99.27%
- death of animals ([1]; 4 dose groups (20, 40, 60, 80 mg/kg)): No death occurred

Structure (SMILES): CC(=O)O[C@@]12CO[C@@H]1C[C@H](O)[C@@]1(C)C(=O)[C@H](O)C3=C(C)[C@@H](OC(=O)[C@H](O)[C@@H](NC(=O)OC(C)(C)C)c4ccccc4)C[C@@](O)([C@@H](OC(=O)c4ccccc4)[C@H]21)C3(C)C [Docetaxel, docetaxel, reference compound]
- relative tumor volume after 21 days (after the administration was stopped) (FIG. 5) (Hela tumor; 25 mg DTX/kg): continued to increase with time
- relative tumor inhibition rate (Hela tumor; 25 mg DTX/kg): 67.62%
- RTV (Day 43) ([1]; 20 mg/kg): 2.73 ± 1.36
- body weights of the animals after administering (FIG. 9), in words ([1]; 20 mg/kg): reduced
- death of animals ([1]; 20 mg/kg): no death
- Animal body weight (g) (After tumor removal) ([1]; 20 mg/kg): 25.35 ± 1.15 g
- Tumor inhibition rate % ([1]; 20 mg/kg): 84.50%
- RTV (Day 43) ([1]; 40 mg/kg): 0.13 ± 0.02
- body weights of the animals after administering (FIG. 9), in words ([1]; 40 mg/kg): severely reduced
- Animal body weight (g) (After tumor removal) ([1]; 40 mg/kg): 18.71 ± 2.78 g
- Tumor inhibition rate % ([1]; 40 mg/kg): 99.24%
- death of animals (number of animals died) ([1]; 40 mg/kg, died on Day 33): 1 animal
